This is an account of results in publication PMC4599014, “The Cell Shape-determining Csd6 Protein from Helicobacter pylori Constitutes a New Family of L,D-Carboxypeptidase*” (The Journal of Biological Chemistry, 2015).

As a reminder, the Kd is a measure of binding affinity in units of concentration. By stoichiometry N is commonly meant the number of molecules, sites or subunits per partner or assembly.

For data set [1], the system named is Csd6. Briefly: Crystal structure of D-Ala-bound Csd6. Format: binding, Helicobacter pylori 26695. The settings on record: native crystal preincubated 2 min with 96 mM D-Ala; 2.04 Å, PDB 4Y4V. As to the method: Native crystals of ligand-free Csd6 were grown at 23 °C by the sitting-drop vapor diffusion method. Sitting drops were prepared by mixing 0.5 μl of the protein solution, 0.1 μl of a 10-fold diluted microseed crystal solution, and 0.4 μl of the reservoir solution (1.5% (v/v) Tacsimate, pH 7.0, 22% (w/v) PEG 3,350, and 100 mM sodium-HEPES, pH 7.5). The microseed crystals were originally obtained with ligand-free Csd6 using the above reservoir solution. The crystals grew to approximate dimensions of 0.2 × 0.1 × 0.05 mm within a few days. X-ray diffraction data for the ligand-free Csd6 (Csd6-unbound) were collected at 100 K using a cryoprotectant solution containing 20% (v/v) glycerol added to the reservoir solution (Table 1). X-ray diffraction data for the D-Ala-bound Csd6 (Csd6-Ala) were collected at 100 K after the native crystal was preincubated for 2 min in a cryoprotectant solution containing both 20% (v/v) glycerol and 96 mM D-Ala, which were added to the reservoir solution (Table 1). The structures of both Csd6-unbound and Csd6-Ala were determined by molecular replacement with the program MolRep ([47]) using the refined model of EMTS-derivatized Csd6. Stereochemistry of the refined models was evaluated using MolProbity ([48]).

The next data set addresses H. pylori Csd6 (Helicobacter pylori, UniProt O25255). Briefly: SPR kinetics and affinity on immobilized Csd6. The settings on record: for kon: read-out: association rate constant ka; for koff: read-out: dissociation rate constant kd. In kind it is binding, Helicobacter pylori 26695. How it is done:
The kinetics and affinity of Csd6 with the synthetic muramyl tetrapeptide and muramyl tripeptide (β-methyl N-acetylmuramic acid-L-Ala^1-γ-D-Glu^2-mDAP^3) as a reaction product were assessed using a Reichert SR7500 surface plasmon resonance (SPR) dual channel instrument (Reichert, Depew, NY). Purified Csd6 in 20 mM sodium acetate, pH 5.5, was immobilized using the standard amino coupling at 20 μl min^−1 on a carboxymethyl dextran hydrogel surface sensor chip (Reichert, Depew, NY) until saturation was achieved. The running buffer B used in all SPR experiments was 20 mM HEPES, pH 7.9, and 150 mM sodium chloride. SPR experiments were performed at 25 °C. The muramyl tetrapeptide or muramyl tripeptide at concentrations of 15.6, 31.3, 62.5, 125, 250, and 500 μM was injected over the Csd6-chip at 30 μl min^−1 for 5 min for association analyses. Subsequently, the running buffer was flowed over the chip for an additional 6 min (30 μl min^−1) for dissociation analyses. Regeneration of the chip was carried out using 20 mM sodium hydroxide. Binding was detected as a change in the refractive index at the surface of the chip as measured by the response unit. A reference flow cell was used to record the response by bovine serum albumin (BSA) as a […], and the response by BSA was subtracted from each sample. SPR data were fit using the Scrubber2 software.
FIGURE 5.

The test system of a further data set is LdtMt2. To be noted: positive control for L,D-TPase activity; recombinant LdtMt2 (Ala-55–Ala-408); MALDI-QIT-TOF MS.
Data set [2] concerns Csd6. In kind it is biochemical, Helicobacter pylori 26695. To be noted: analyte 5 mM, Csd6 5 μM, 2 h, 37 °C; 20 mM sodium phosphate, pH 6.0, 150 mM sodium chloride; MALDI-QIT-TOF MS.
Data set [3] deals with the molecule itself. Briefly: AUC; equilibrium sedimentation; 20 mM Tris-HCl pH 7.9, 150 mM NaCl, 1.5 mM TCEP, 20 °C; 16,000 and 20,000 rpm; Csd6 monomer concentrations 2.74, 3.65 and 4.56 μM.
The format of data set [4] is biochemical. To be noted: muramyl tetrapeptide.
The conditions of data set [5]: recombinant hexahistidine-tagged Csd6; cited from earlier work. The source says:
In many bacteria, including H. pylori, the peptidoglycan layer is remodeled by a number of cell-wall hydrolases as well as synthetases for the peptidoglycan maturation, regulation of cell-wall growth, cell division, peptidoglycan turnover and recycling, cell lysis, and the release of peptidoglycan fragments for host-pathogen interactions ([18]). In H. pylori, an amidase AmiA ([19]), peptidases Csd1–4, potential regulators Csd5 and CcmA ([20][–][22]), and another peptidase Csd6 ([23]) are required to tailor the peptidoglycan layer to generate the helical cell shape. We have recently reported th ...

Setting [6] is: SPR, Reichert SR7500, Csd6 immobilized by amine coupling, 20 mM HEPES, pH 7.9, 150 mM sodium chloride, 25 °C, analyte 15.6-500 μM, Scrubber2 fit, read-out: KD.
The mark [7] stands for this setting: muramyl tripeptide vs muramyl tetrapeptide, SPR, Csd6.

Where two headings read alike, the source gives them in different places. [ ]: non-standard residue; d: D form. mDAP = meso-diaminopimelic acid

`C[C@@H](N)C(=O)O` [D-Ala]: the “binding in crystal structure (in words)” value in the data set on Csd6 [1] was “two D-Ala molecules are well ensconced within the active site of monomer A with clear electron density”. At H. pylori Csd6, binding was put at a Kd of 224 µM, the kon came to 1.05 M⁻¹ s⁻¹ and the koff came to 0.00023 s⁻¹.

For `N[C@H](CCC[C@H](N)C(=O)O)C(=O)O` [mDAP, meso-2,6-diaminopimelate], on H. pylori Csd6, the dissociation constant (Kd) was 94 µM, the kon turned out to be 1.49 M⁻¹ s⁻¹ and the koff came to 0.00014 s⁻¹.

Consider “β-methyl N-acetylmuramic acid-L-Ala^1-γ-D-Glu^2-mDAP^3 [muramyl tripeptide]”, for which the Kd at H. pylori Csd6 (setting [6]) stood at 510 µM. At H. pylori Csd6 (setting [7]), the “ka relative to that for the muramyl tetrapeptide” value was “roughly 3 ×” and the “kd relative to that for the muramyl tetrapeptide” value is given as ~50 ×.

Take “β-methyl N-acetylmuramic acid-L-Ala^1-γ-D-Glu^2-mDAP^3-D-Ala^4 ({β‑methyl N‑acetylmuramic acid}-AE[mDAP][dA]-OH; not fully specified (residue 2)) [muramyl tetrapeptide]”: the Kd in the data set with H. pylori Csd6 (setting [6]) stood at 27 µM.

For “β-methyl N-acetylmuramic acid-L-Ala^1-γ-D-Glu^2-mDAP^3-D-Ala^4 [muramyl tetrapeptide]”, the “reaction product upon incubation with LdtMt2” value with LdtMt2 was “not only the muramyl tripeptide (Tri in Fig. 1C) but also the dimeric cross-linked species (Tetra-Tri in Fig. 1C) were detected as the reaction products”. The “reaction product upon incubation with Csd6” value in the data set with Csd6 [2] is “the muramyl tripeptide was detected as the sole reaction product of trimming without any dimeric cross-linked species”.

As for “β-methyl N-acetylmuramic acid-L-Ala^1-γ-D-Glu^2-mDAP^3-D-Ala^4-D-Ala^5 [muramyl pentapeptide]”, the “reaction product upon incubation with Csd6” value in the data set with Csd6 [2] is recorded as “no reaction product could be detected”.

B1: Helicobacter pylori Csd6 (HP0518), residues Val-13–Lys-330 (enzyme, Helicobacter pylori 26695, UniProt O25255 13-330, looked up)
chain: VGLNASDRLLEIMRLYQKQGLEMVGQKLDSYLADKSFWAEELQNKDTDFGYYQNKQFLFVANKSKPSLEFYEIENNMLKKINSSKALVGSKKGDKTLEGDLATPIGVYRITQKLERLDQYYGVLAFVTNYPNLYDTLKKRTGHGIWVHGMPLNGDRNELNTKGCIAIENPLLSSYDKVLKGEKAFLITYEDKFFPSTKEELSMILSSLFQWKEAWARGDFERYMRFYNPNFTRYDGMKFNAFKEYKKRVFAKNEKKNIAFSSINVIPYPNSQNKRLFYVVFDQDYKAYQHNKLSYSSNSQKELYIEIENNQVSIIMEK
notes: Csd6 (HP0518), L,D-carboxypeptidase of Helicobacter pylori strain 26695, residues Val-13–Lys-330 of the gene product; In the Csd6-Ala crystal, Cys-176 of monomer A is oxidised to sulfenic acid; also called Csd6(13–330); recombinant Csd6; source: E. coli Rosetta2(DE3)pLysS, purified (HiTrap Chelating HP, Superdex 200)
In the case of B1, in data set [3], the “stoichiometry N” value worked out at 2.

B2: Csd6: recombinant H. pylori 26695 Csd6 protein, residues Val-13–Lys-330, with N-terminal His6-containing tag (protein)
chain: VGLNASDRLLEIMRLYQKQGLEMVGQKLDSYLADKSFWAEELQNKDTDFGYYQNKQFLFVANKSKPSLEFYEIENNMLKKINSSKALVGSKKGDKTLEGDLATPIGVYRITQKLERLDQYYGVLAFVTNYPNLYDTLKKRTGHGIWVHGMPLNGDRNELNTKGCIAIENPLLSSYDKVLKGEKAFLITYEDKFFPSTKEELSMILSSLFQWKEAWARGDFERYMRFYNPNFTRYDGMKFNAFKEYKKRVFAKNEKKNIAFSSINVIPYPNSQNKRLFYVVFDQDYKAYQHNKLSYSSNSQKELYIEIENNQVSIIMEK
modifications: left off: His6-containing tag, N-terminal, state not stated
notes: recombinant H. pylori 26695 Csd6 protein, residues Val-13–Lys-330, with N-terminal His6-containing tag
Take B2: the “L,D-carboxypeptidation activity upon EDTA treatment (in words)” value in data set [4] was “no change upon EDTA treatment”. Moreover, the “conversion of monomeric tetrapeptides” value in data set [5] is listed as “complete conversion of the monomeric tetrapeptides to tripeptides”.
